Consider one compound from patent US9023789B2, “Amylin analogs and pharmaceutical compositions thereof” (Novo Nordisk A/S, priority 2012, dated 2015).

Numbered stars: 1 amine (or outer) side, 2 acyl side, 3 side chain; on linkers, the order of the positions; unused ones are H or OH. Bridge positions count the residues as written; N and C are the ends. Side chains are listed from the residue outwards. Peptide text beside a SMILES is read from it. * marks the point of attachment. C20 diacid = O=C(O)CCCCCCCCCCCCCCCCCCC(=O)*; γGlu = O=C(O)[C@H](CCC(=O)[*:2])N[*:1]

Usually EC50 stands for the concentration that produces a half-maximal response. In general, IC50 refers to the concentration that gives 50% inhibition.

Data set [1] addresses T1, human calcitonin (a) receptor in BHK570 cells (Homo sapiens, UniProt P30988).
T1 construct: expressed in transfected cells
T1 sequence (P30988 25-474): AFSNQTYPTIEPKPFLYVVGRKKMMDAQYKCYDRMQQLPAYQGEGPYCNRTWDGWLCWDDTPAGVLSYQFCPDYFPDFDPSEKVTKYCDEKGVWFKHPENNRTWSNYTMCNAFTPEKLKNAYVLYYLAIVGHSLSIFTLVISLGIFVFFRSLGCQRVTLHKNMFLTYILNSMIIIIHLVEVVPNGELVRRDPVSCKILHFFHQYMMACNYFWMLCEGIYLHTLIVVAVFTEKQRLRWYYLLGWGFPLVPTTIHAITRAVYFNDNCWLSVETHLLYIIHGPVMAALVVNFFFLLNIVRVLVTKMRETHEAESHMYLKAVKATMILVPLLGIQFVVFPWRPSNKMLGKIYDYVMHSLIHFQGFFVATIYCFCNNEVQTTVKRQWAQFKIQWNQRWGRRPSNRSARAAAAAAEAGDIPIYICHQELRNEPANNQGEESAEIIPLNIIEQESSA
In words: ASSAY (II)a functional assay, human calcitonin receptor (CRE luciferase). It counts as cell-based. The settings on record: read-out: hCTR funct. EC50. The text has this: 1. Luciferase Assay Outline
Activation of calcitonin and amylin (coexpression of calcitonin receptor and receptor activity modifying proteins (RAMP)) receptors lead to increased intracellular concentrations of cAMP. Consequently, transcription is activated by promoters containing multiple copies of the cAMP response element (CRE). It is thus possible to measure amylin activity by the use of a CRE luciferase reporter gene introduced into BHK cells also expressing calcitonin or amylin receptors.
2. Construction of Calcitonin (a)- and Amylin 3(a)-Receptor/CRE-Luc Cell Line.
The cell line was further transfected with RAMP-3, using standard methods. This turns the calcitonin receptor into an amylin 3(a) receptor. Methotrexate, Neomycin, and Hygromycin are selection markers for luciferase, the calcitonin receptor, and RAMP-3, respectively.
To perform activity assays, BHK calcitonin (a) receptor- or amylin 3(a)-receptor/CRE-luc cells were seeded in white 96 well culture plates at a density of about 20.000 cells/well. […] After incubation overnight at 37° C. and 5% CO2, the growth medium was replaced by 50 μl/well assay medium (DMEM (without phenol red), Glutamax™, 10% FBS, and 10 mM Hepes, pH 7.4). Further, 50 μl/well of standard or sample in assay buffer were added. After 3 hours incubation at 37° C. and 5% CO2, the assay medium with standard or sample were removed and replaced by 100 μl/well PBS. Further, 100 μl/well LucLite™ was added. The plates were sealed and incubated at room temperature for 30 minutes. Finally, luminescence was measured on a TopCounter (Packard) in SPC (single photon counting) mode.

For data set [2], the target named is T2, human calcitonin receptor (Homo sapiens, UniProt P30988).
T2 construct: expressed in transfected cells
T2 sequence (P30988 25-474): T1 sequence (P30988 25-474)
In words: ASSAY (VII) binding to the human calcitonin receptor (SPA, 125I-Calcitonin).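 Further: cell membranes (35 ng/µL) combined with SPA beads in 40 µL of pH 7.4 Hepes buffer, 384-well format, signal counted on a TopCounter instrument.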 The settings on record: read-out: hCTR bind IC50.

In data set [3] the target is T3, human amylin receptor (membranes from Amylin 3(a)/CRE-luc cells) (Homo sapiens, UniProt O60896+P30988).
T3 construct: expressed in transfected cells
T3 sequence (P30988 25-474): T1 sequence (P30988 25-474)
T3 sequence (O60896 24-148 partner): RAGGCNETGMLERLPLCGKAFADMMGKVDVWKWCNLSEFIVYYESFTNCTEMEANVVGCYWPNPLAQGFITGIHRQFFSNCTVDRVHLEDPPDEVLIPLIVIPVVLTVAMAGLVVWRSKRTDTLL
Briefly: ASSAY (V) binding to the human amylin receptor (SPA, 125I-rat amylin).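 Further: competition binding of cell membranes (35 ng/µL) mixed with SPA beads in 384-well plates at 40 µL total volume, read by scintillation counting.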

Data set [4] deals with T4, human amylin 3(a) receptor (human calcitonin receptor + RAMP-3) in BHK570 cells (Homo sapiens, UniProt O60896+P30988).
T4 construct: expressed in transfected cells
Briefly: ASSAY (II)a functional assay, human amylin receptor (CRE luciferase). In kind it is cell-based. Summed up: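 Cells were seeded and cultured overnight, then incubated with standard or sample for 3 h at 37° C in serum-containing medium at pH 7.4. The medium was then swapped for PBS, LucLite was added for 30 min at room temperature, and luminescence was recorded. Cells were BHK with CRE-luc and calcitonin receptor, ± RAMP-3.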

The nature of data set [5]: ASSAY (III) ThT fibrillation assay for physical stability. It counts as physicochemical. An excerpt: Assay (III)—ThT Fibrillation Assays for the Assessment of Physical Stability of Protein Formulations Low physical stability of a polypeptide may lead to amyloid fibril formation, which is observed as well-ordered, thread-like macromolecular structures in the sample eventually resulting in gel formation. This has traditionally been measured by visual inspection of the sample. However, that kind of measurement is very subjective and depending on the observer. Therefore, the application of a small molecule indicator probe is much more advantageous. Thioflavin T (ThT) is such a probe and has a distinct fluorescence signature when binding to fibrils [Naiki et al. (1989) Anal. […] LeVine (1999) Methods. Enzymol. […], 274-284]. The time course for fibril formation can be described by a sigmoidal curve with the following expression [Nielsen et al. (2001) Biochemistry 40, 6036-6046]; […] Here, F is the ThT fluorescence at the time t. The constant t0 is the time needed to reach 50% of maximum fluorescence. […] Few of those intermediates nucleate to form a template onto which further intermediates may assembly and the fibrillation proceeds. The lag-time corresponds to the interval in which the critical mass of nucleus is built up and the apparent rate constant is the rate with which the fibril itself is formed. Sample Preparation Samples were prepared freshly before each assay. Each sample composition is described in each example. The pH of the sample was adjusted to the desired value using appropriate amounts of concentrated NaOH and HClO4 or HCl. Thioflavin T was added to the samples from a stock solution in H2O to a final concentration of 1 μM. Sample aliquots of 200 μl were placed in a 96 well microtiter plate (Packard OptiPlate™96, white polystyrene). Usually, four or eight replica of each sample (corresponding to one test condition) were placed in one column of wells. The plate was sealed with Scotch Pad (Qiagen). Incubation and Fluorescence Measurement Incubation at given temperature, shaking and measurement of the ThT fluorescence emission were done in a Fluoroskan Ascent FL fluorescence platereader or Varioskan platereader (Thermo Labsystems). The temperature was adjusted to 37° C. The orbital shaking was adjusted to 960 rpm with an amplitude of 1 mm in all the presented data. Fluorescence measurement was done using excitation through a 444 nm filter and measurement of emission through a 485 nm filter. Each run was initiated by incubating the plate at the assay temperature for 10 min. The plate was measured every 20 minutes for a desired period of time. Between each measurement, the plate was shaken and heated as described. Data Handling The measurement points were saved in Microsoft Excel format for further processing and curve drawing and fitting was performed using GraphPad Prism. The background emission from ThT in the absence of fibrils was negligible. The data points are typically a mean of four or eight samples and shown with standard deviation error bars. Only data obtained in the same experiment (i.e. samples on the same plate) are presented in the same graph ensuring a relative measure of fibrillation between experiments. The data set may be fitted to Eq. […] However, since full sigmodial curves in this case are not always achieved during the measurement time, the degree of fibrillation is expressed as ThT fluorescence tabulated as the mean of the samples and shown with the standard deviation at various time points. Measurement of Initial and Final Concentrations The polypeptide concentration in each of the tested formulations were measured both before application in the ThT fibrillation assay (“Initial”) and after completion of the ThT fibrillation (“After ThT assay”). Concentrations were determined by reverse HPLC methods using a pramlintide standard as a reference. Before measurement after completion 150 μl was collected from each of the replica and transferred to an Eppendorf tube. These were centrifuged at 30000 G for 40 mins. […]

Regarding `CC[C@H](C)[C@H](NC(=O)[C@H](C)NC(=O)CNC(=O)[C@H](Cc1ccccc1)NC(=O)[C@H](CC(N)=O)NC(=O)[C@@H]1CCCN1C(=O)[C@H](CO)NC(=O)[C@H](CO)NC(=O)[C@H](Cc1c[nH]cn1)NC(=O)[C@H](CCCNC(=N)N)NC(=O)[C@H](CC(C)C)NC(=O)[C@H](Cc1ccccc1)NC(=O)[C@H](CCC(=O)O)NC(=O)[C@H](C)NC(=O)[C@H](CC(C)C)NC(=O)[C@H](CCCNC(=N)N)NC(=O)[C@H](CCC(N)=O)NC(=O)[C@@H](NC(=O)[C@H](C)NC(=O)[C@@H]1CSSC[C@H](NC(=O)[C@@H](N)CCCCNC(=O)CC[C@H](NC(=O)CC[C@H](NC(=O)CCCCCCCCCCCCCCCCCCC(=O)O)C(=O)O)C(=O)O)C(=O)N[C@@H](CC(N)=O)C(=O)N[C@@H]([C@@H](C)O)C(=O)N[C@@H](C)C(=O)N[C@@H]([C@@H](C)O)C(=O)N1)[C@@H](C)O)C(=O)N1CCC[C@H]1C(=O)N[C@@H](CO)C(=O)N[C@@H](CO)C(=O)N[C@H](C(=O)N[C@@H](CC(N)=O)C(=O)N[C@H](C(=O)NCC(=O)N[C@@H](CO)C(=O)N[C@@H](CC(N)=O)C(=O)N[C@H](C(=O)N1CCC[C@H]1C(N)=O)[C@@H](C)O)C(C)C)[C@@H](C)O` [Example 13] (H-K([γGlu-γGlu-C20 diacid])CNTATCATQRLAEFLRHSSPNFGAIPSSTNVGSNTP-NH2; disulfide 2-7; N-terminus assumed), the EC50 in data set [1] is 0.47 nM; in data set [4] (human amylin receptor functional potency, assay (II), read-out: hAmylin-R funct. EC50), 0.213 nM. For the same compound, the half-inhibitory concentration (IC50) in data set [2] came out at 0.305 nM; in data set [3] (Table 4, read-out: hAmylin-R bind IC50), 0.264 nM. For the same compound, the “Ratio hCT/hAmylin binding” value in data set [3] (Table 5, selectivity, hCTR bind IC50 / hAmylin-R bind IC50) is 1.2; in data set [3] (Table 7, human binding selectivity, included for comparison), 1.2. Besides, the “Ratio hCT/hAmylin funct.” value in data set [4] (hCTR funct. EC50 / hAmylin-R funct. EC50), in data set [4] (hCTR funct. EC50 divided by hAmylin-R funct. EC50), in data set [4] (hCTR funct. EC50 over hAmylin-R funct. EC50) and in data set [4] (human functional selectivity: hCTR funct. EC50 / hAmylin-R funct. EC50) was 2.2 throughout. In data set [5], the “ThT pH 4.0 lag time (h)” value came out at 45 h.
